This is an account of results in ChEMBL document CHEMBL1201862, “PubChem BioAssay data set” (2004).

“And” between values parts separate entries of the source, which are not always exact repeats. Equal values may be shown once.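 Protocol summary: plate cells (96-well), add compound at 5 concentrations, incubate 48 h, interpolate endpoints linearly. GI50 is the concentration that inhibits growth by half.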 The source made the active and inactive calls. No stated cut-off is given here; in the data, active = GI50 up to about 1.1 µM and inactive = higher.

Common to all, as to test: inhibition of tumour cell growth, NCI panel, 48 h
Assay [1] relates to OVCAR-8.
Assay [2] relates to RPMI-8226.
Assay [3] concerns MDA-N.
The subject of assay [4] is NCI-H23.
For assay [5], the system named is SF-295.
Assay [6] relates to MDA-MB-435.
The test system of assay [7] is OVCAR-4.
For assay [8], the system named is MCF7.
Assay [9] has as its system 786-0.
Assay [10] concerns NCI-H226.
Assay [11] relates to SN12C.
Assay [12] deals with OVCAR-5.
Assay [13] deals with M14.
The test system of assay [14] is UO-31.
The test system of assay [15] is SR.
Assay [16] has as its system IGROV-1.
The subject of assay [17] is HCC 2998.
For assay [18], the system named is U-251.
Assay [19] has as its system UACC-257.
The test system of assay [20] is CAKI-1.

Turning to `CSC(=O)c1sc(SC)[n+](-c2ccccc2)c1O`, the GI50 in assay [1] was 22.8 µM (inactive); in assay [2], 21.5 µM (inactive); in assay [3] it was 17 µM (inactive); in assay [4], 17.7 µM (inactive); in [5] it was 14.9 µM (inactive); in assay [6], 18.7 µM (inactive). Also, the GI50 in [7] is 12.1 µM (inactive); in assay [8], 25.4 µM (inactive); in assay [9], 17.9 µM (inactive); in assay [10], 22.5 µM (inactive); in assay [11] it was 19.6 µM (inactive); in [12], 18.7 µM (inactive). Further, the GI50 is 14.3 µM (inactive) in [13]; 17.3 µM (inactive) in assay [14]; 29.8 µM (inactive) in [15]; 19.2 µM (inactive) in [16]; 19.6 µM (inactive) in assay [17]; 16.5 µM (inactive) in assay [18].
As for `O=c1c(Cl)c(Cl)cnn1-c1ccccc1`, the GI50 in assay [1] was 3.85 µM (inactive) and 2.39 µM (inactive); in assay [2], 5.92 µM (inactive) and 7.26 µM (inactive); in [3], 2.14 µM (inactive) and 1.81 µM (inactive); in [6], 1.79 µM (inactive) and 2.08 µM (inactive); in assay [19] it was 13 µM (inactive) and 6.85 µM (inactive); in assay [7], 2.19 µM (inactive) and 1.53 µM (inactive). Also, the GI50 is 4.07 µM (inactive) and 3.31 µM (inactive) in assay [8]; 5.64 µM (inactive) and 4.79 µM (inactive) in [9]; 9.38 µM (inactive) and 9.14 µM (inactive) in assay [10]; 2.06 µM (inactive) and 3.85 µM (inactive) in assay [11]; 1.74 µM (inactive) and 1.76 µM (inactive) in [13]; 4.18 µM (inactive) and 3.56 µM (inactive) in [14]. For the same compound, the GI50 in assay [15] is 2.14 µM (inactive) and 1.61 µM (inactive); in assay [17], 3.42 µM (inactive) and 3.85 µM (inactive); in [18], 3.51 µM (inactive) and 1.79 µM (inactive).
As for `O=C(NCCNCCO)N/N=C/c1ccc(Cl)cc1`, the GI50 in assay [1], in assay [3], in assay [4], in [5], in assay [6] and in assay [19] was > 100 µM (inactive) throughout. Also, the GI50 in [8], in assay [9], in assay [10], in assay [11], in assay [12] and in assay [13] was > 100 µM (inactive) in each case. Also, the GI50 in [14], in assay [15], in assay [16], in [17], in assay [18] and in [20] was > 100 µM (inactive) each time.
With `NC1=NCC(CN2CCOCC2)O1` (stereo unspecified), the GI50 in [1], in assay [2], in assay [3], in assay [4], in assay [5] and in assay [6] was > 100 µM (inactive) each time. Besides, the GI50 in assay [19], in assay [7], in [8], in assay [9], in assay [11] and in [12] was > 100 µM (inactive) in each case. Further, the GI50 in assay [13], in assay [14], in assay [15], in assay [16], in [17] and in [18] was > 100 µM (inactive) throughout. Also, the GI50 in assay [20] is > 100 µM (inactive).
As for `Cc1cc(C)nc(NS(=O)(=O)c2ccc(Nc3c4ccccc4nc4c(C(=O)NCCO)cccc34)cc2)n1`, the GI50 is 8.24 µM (inactive) in assay [1]; 10.3 µM (inactive) in assay [2]; 18.1 µM (inactive) in [3]; 23.8 µM (inactive) in assay [4]; 11.8 µM (inactive) in assay [5]; 16.6 µM (inactive) in assay [6]. Moreover, the GI50 is > 10 µM (inactive) in [19]; 33.3 µM (inactive) in [7]; 18 µM (inactive) in assay [8]; > 10 µM (inactive) in [9]; 15 µM (inactive) in assay [11]; 24.5 µM (inactive) in assay [12]. In addition, the GI50 in assay [13] was 31.1 µM (inactive); in assay [14], > 10 µM (inactive); in assay [15], 10.7 µM (inactive); in assay [16] it was 25.8 µM (inactive); in assay [17] it was 10.4 µM (inactive); in assay [18], 17.1 µM (inactive). In addition, the GI50 in assay [20] was 23.3 µM (inactive).
On to `S=c1[nH]nc(Cn2c3ccc(Br)cc3c3nc4ccccc4nc32)o1`, for which the GI50 in [1] is 43.2 µM (inactive); in assay [2], 4.29 µM (inactive); in assay [3] it was 41 µM (inactive); in [4], 25.2 µM (inactive); in assay [5], 42.9 µM (inactive); in assay [6], 16.7 µM (inactive). For the same compound, the GI50 is > 58.6 µM (inactive) in assay [19]; 39 µM (inactive) in assay [8]; 34.3 µM (inactive) in assay [9]; > 77.3 µM (inactive) in [10]; 51.9 µM (inactive) in assay [11]; > 84.5 µM (inactive) in assay [12]. Moreover, the GI50 in [13] was 4.55 µM (inactive); in assay [14], 16.3 µM (inactive); in assay [15], 0.568 µM (active); in assay [16], 31.9 µM (inactive); in [17], 38.8 µM (inactive); in [18] it was 0.944 µM (active). Also, in assay [20], the GI50 was 41.6 µM (inactive).
Turning to `COc1ccc(NC(=O)CC(=O)N2N=C(c3ccccc3)C(/N=N/c3ccc(S(=O)(=O)CCOS(=O)(=O)O)cc3)C2=O)cc1` (stereo unspecified), the GI50 in assay [1], in assay [2], in assay [3], in assay [4], in assay [5] and in assay [6] was > 100 µM (inactive) each time. Also, the GI50 in assay [19], in assay [8], in assay [9], in [10], in assay [11] and in assay [13] was > 100 µM (inactive) in each case. Moreover, the GI50 in assay [14], in assay [15], in assay [16], in assay [17], in assay [18] and in [20] was > 100 µM (inactive) throughout.
`C=CCN(c1cc(OC)c2c(c1[N+](=O)[O-])C(C)(SC)C(=O)N2)S(C)(=O)=O` (stereo unspecified): the GI50 was > 100 µM (inactive) in assay [1]; 94 µM (inactive) in [2]; > 100 µM (inactive) in assay [3]; > 100 µM (inactive) in [4]; 77.1 µM (inactive) in assay [5]; > 100 µM (inactive) in assay [6]. The GI50 was > 100 µM (inactive) in assay [19]; 47.8 µM (inactive) in assay [7]; > 100 µM (inactive) in [8]; 87.7 µM (inactive) in [9]; > 100 µM (inactive) in [10]; > 100 µM (inactive) in assay [11]. The GI50 in assay [14] was > 100 µM (inactive); in assay [15], 31.8 µM (inactive); in assay [16] it was > 100 µM (inactive); in assay [17], 65.5 µM (inactive); in assay [18], > 100 µM (inactive); in [20], > 100 µM (inactive).
As to `CSCCCNC(=O)c1csc([C@@H](CSC)NC(=O)CCNC(=O)[C@@H](NC(=O)OCC(Br)(Br)Br)C(C)O)n1` (stereo partly specified), the GI50 in assay [1], in [3], in [4], in assay [5], in assay [6] and in [19] was > 100 µM (inactive) throughout. The GI50 is > 100 µM (inactive) in assay [7]; 94.2 µM (inactive) in assay [8]; > 100 µM (inactive) in [9]; > 100 µM (inactive) in [10]; > 100 µM (inactive) in assay [11]; > 100 µM (inactive) in [12]. Also, the GI50 in assay [13], in assay [14], in assay [15], in [16], in assay [17] and in [18] was > 100 µM (inactive) each time. Further, the GI50 in [20] was > 100 µM (inactive).
`CSc1csc(-c2ccc(-c3ccc(-c4cc(SC)cs4)s3)s2)c1`: the GI50 in assay [2], in assay [3], in assay [4], in [5], in [6] and in assay [19] was > 100 µM (inactive) throughout. The GI50 in assay [7], in assay [8], in assay [9], in assay [10], in assay [11] and in [12] was > 100 µM (inactive) throughout. The GI50 in [13], in assay [14], in [15], in assay [16], in assay [17] and in [18] was > 100 µM (inactive) each time.
